Measurements from patent US20240059658A1 (Emory University, priority 2019, published 2024).

What was measured:
[1] = tested on: EU-1; test: WST cytotoxicity assay, cancer cell EU-1; type: cell-based, human; details: Homo sapiens, EU-1, EU-1; no other cell line named in the cell; read-out: Cancer cell (EU-1) cytotoxicity IC50
Procedure: This study used two ALL cell lines (EU-1 and EU-3) and three NB cell lines (NB-1643, SHEP1 and LA1-55N). All 5 cancer cell lines were established from pediatric ALL or NB patients and were well-characterized for their expression of MDM2 and p53-status, as reported previously. All cell lines were grown in standard culture medium (RPMI 1640 containing 10% FBS, 2 mmol/L L-glutamine, 50 U penicillin and 50 μg/mL streptomycin) at 37° C. in a humidified atmosphere containing 5% CO2.
The cytotoxic effect of MX 69 and MX69 analogs on cancer cells was determined using the water-soluble tetrazolium salt (WST) assay. Briefly, cells cultured in 96-well microtiter plates were treated with different concentrations of AQ-101 for a 20-h period. WST (25 μg/well) was then added and incubation continued for an additional 4 h, after which optical density (OD) was read with a microplate reader (test wavelength of 450 nm; reference wavelength of 620 nm).

[2] = biological target: T1, MDM2 (Homo sapiens, UniProt Q00987); test: MDM2 reduction / expression (Western blot); type: cell-based; details: words or +/− grades, key not given
T1 construct: ubiquitination of endogenous MDM2 in EU-1 cells; endogenous in cells; host or cells: EU-1 (ALL) cells
T1 sequence (Q00987 whole entry): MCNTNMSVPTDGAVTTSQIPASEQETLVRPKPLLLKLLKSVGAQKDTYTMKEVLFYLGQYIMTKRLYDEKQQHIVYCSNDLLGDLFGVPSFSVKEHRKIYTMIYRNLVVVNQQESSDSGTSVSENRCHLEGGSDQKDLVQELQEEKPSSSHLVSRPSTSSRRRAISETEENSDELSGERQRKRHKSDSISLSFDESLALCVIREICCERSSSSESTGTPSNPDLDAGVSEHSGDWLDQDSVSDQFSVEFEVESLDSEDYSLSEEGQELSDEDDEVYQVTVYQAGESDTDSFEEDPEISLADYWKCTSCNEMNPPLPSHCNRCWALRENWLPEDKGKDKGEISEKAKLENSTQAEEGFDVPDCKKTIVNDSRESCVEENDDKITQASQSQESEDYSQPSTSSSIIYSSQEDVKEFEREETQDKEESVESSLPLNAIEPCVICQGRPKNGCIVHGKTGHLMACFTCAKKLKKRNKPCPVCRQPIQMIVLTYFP
Procedure: (§1) Cells were lysed in a buffer composed of 50 mM Tris, pH 7.6, 150 mM NaCl, 1% Nonidet P-40, 10 mM sodium phosphate, 10 mM NaF, 1 mM sodium orthovanadate, 2 mM phenylmethylsulfonyl fluoride (PMSF), […], 10 μg/mL leupeptin and 10 μg/mL pepstatin. After centrifugation, the clarified cell lysate was separated from the pellet of cell debris, and then incubated with 15 μL Protein G/Protein A-agarose and 1 μg of antibodies, overnight at 4° C. For the Western blot, the resulting cell lysates or immunoprecipitates were resolved by SDS-PAGE. They were then transferred to a nitrocellulose filter and probed with the specific antibodies as listed in the supplemental Materials section. Finally, proteins were visualized with a chemiluminescent detection system.

[3] = tested on: p53; test: p53 induction / expression (Western blot); type: cell-based; details: words or +/− grades, key not given
Procedure: as §1

Row | MDM2 reduction [2] | Compound | IC50 [1] | p53 induction [3]
1 | No MDM2 | Cc1ccc(NS(=O)(=O)c2ccc3c(c2)[C@H]2OCC[C@H]2[C@H](C2CCNCC2)N3)cc1C [Compound 69L55] | 1640 nM | 
2 | No MDM2 | CC(C)c1ccc(C2Nc3ccc(S(=O)(=O)Nc4cccc(C(C)O)c4)cc3[C@H]3OCC[C@@H]23)cc1 (some centres unmarked) [Compound 69L116] | 120 nM | 
3 | No MDM2 | Cc1ccc(NS(=O)(=O)c2ccc3c(c2)[C@H]2OCC[C@H]2C(c2ccc(C(=O)C(C)C)cc2)N3)cc1Cl (some centres unmarked) [Compound 69L73, N-(3-chloro-4-methylphenyl)-4-(4-isobutyrylphenyl)-2,3,3a,4,5,9b-hexahydrofuran[3,2-c]quinolone-8-sulfonamide] | 1560 nM | 
4 | No MDM2 | CC(C)C(=O)c1ccc(C2Nc3ccc(S(=O)(=O)N[C@H]4CC[C@H](C)CC4)cc3[C@H]3OCC[C@@H]23)cc1 (some centres unmarked) [Compound 69L78] | 3670 nM | 
5 | No MDM2 | CC(=O)c1cccc(NS(=O)(=O)c2ccc3c(c2)[C@H]2OCC[C@H]2C(c2cccc(C(C)=O)c2)N3)c1 (stereo in doubt) [Compound 69L103, N,4-bis(3-acetylphenyl)-2,3,3a,4,5,9b-hexahydrofuro[3,2-c]quinoline-8-sulfonamide] | 970 nM | 
6 | inhibition | CC(=O)c1ccc(NS(=O)(=O)c2ccc3c(c2)[C@H]2OCC[C@H]2C(c2cccc(C(C)=O)c2)N3)cc1 (stereo in doubt) [Compound 69L101, 4-(3-acetylphenyl)-N-(4-acetylphenyl)-2,3,3a,4,5,9b-hexahydrofuro[3,2-c]quinoline-8-sulfonamide] | 1800 nM | 
7 | inhibition | Cc1ccc(NS(=O)(=O)c2ccc3c(c2)C(=O)CC(c2ccc(C(=O)C(C)C)cc2)N3)cc1Cl (centres unmarked) [Compound 69L107, N-(3-chloro-4-methylphenyl)-2-(4-isobutyrylphenyl)-4-oxo-1,2,3,4-tetrahydroquinoline-6-sulfonamide] | 930 nM | 
8 | No MDM2 | CC(C)C(=O)c1ccc(C2Nc3ccc(S(=O)(=O)Nc4ccc5c(c4)CCO5)cc3[C@H]3OCC[C@@H]23)cc1 (some centres unmarked) [Compound 69L117] | 300 nM | 
9 | inhibition | Cc1ccc(NS(=O)(=O)c2ccc3c(c2)C2OCC[C@H]2C(c2ccc(C(=O)c4ccccc4)cc2)N3)cc1C (stereo in doubt) [Compound 69L54] | 3220 nM | 
10 | No MDM2 | CCCC(=O)c1ccc(C2Nc3ccc(S(=O)(=O)Nc4ccc(C)c(C)c4)cc3[C@H]3OCC[C@@H]23)cc1 (some centres unmarked) [Compound 69L72] | 2940 nM | 
11 | No MDM2 | CC(C)C(=O)c1ccc(C2CC(=O)c3cc(S(=O)(=O)Nc4ccc(Cl)c(Cl)c4)ccc3N2)cc1 (centres unmarked) [Compound 69L100, N-(3,4-dichlorophenyl)-2-(4-isobutyrylphenyl)-4-oxo-1,2,3,4-tetrahydroquinoline-6-sulfonamide] | 1870 nM | 
12 | inhibition | CC(=O)c1cccc(C2CC(=O)c3cc(S(=O)(=O)Nc4ccc5c(c4)CCO5)ccc3N2)c1 (centres unmarked) [Compound 69L123, 2-(3-acetylphenyl)-N-(2,3-dihydrobenzofuran-5-yl)-4-oxo-1,2,3,4-tetrahydroquinoline-6-sulfonamide] | < 100 nM | 
13 | inhibition | CC(=O)c1cccc(C2Nc3ccc(S(=O)(=O)Nc4ccc(C)c(C)c4)cc3C3OCC[C@@H]23)c1 (stereo in doubt) [Compound 69L93, 4-(3-acetylphenyl)-N-(3,4-dimethylphenyl)-2,3,3a,4,5,9b-hexahydrofuro[3,2-c]quinoline-8-sulfonamide] | 1950 nM | induction
14 | inhibition | CC(=O)c1ccc([C@@H]2Nc3ccc(S(=O)(=O)Nc4ccc(C)c(C)c4)cc3[C@H]3C=CC[C@H]32)cc1 [Compound 69L48] | 3800 nM | 
15 | inhibition | Cc1ccc(NS(=O)(=O)c2ccc3c(c2)[C@H]2OCC[C@H]2[C@H](C2CCC(C(C)C)CC2)N3)cc1C (some centres unmarked) [Compound 69L56, N-(3,4-dimethylphenyl)-4-(4-isopropylcyclohexyl)-2,3,3a,4,5,9b-hexahydrofuran[3,2-c]quinolone-8-sulfonamine] | 10200 nM | 
16 | No MDM2 | O=S(=O)(Nc1ccc(Cl)c(Cl)c1)c1ccc2nc(C3CCCCC3)ccc2c1 [Compound 69L105] | 3120 nM | 
17 | inhibition | Cc1cccc(NS(=O)(=O)c2ccc3c(c2)C(=O)CC(c2ccc(C(=O)C(C)C)cc2)N3)c1 (centres unmarked) [Compound 69L99, 2-(4-isobutyrylphenyl)-4-oxo-N-(m-tolyl)-1,2,3,4-tetrahydroquinoline-6-sulfonamide] | 230 nM | 

Row | MDM2 reduction [2] | Compound | IC50 [1] | p53 induction [3]
18 | No MDM2 | Cc1ccc(NS(=O)(=O)c2ccc3c(c2)[C@H]2C=CC[C@H]2[C@H](c2ccc(C(=O)C(C)C)cc2)N3)cc1C [Compound 69L80] | 2660 nM | 
19 | No MDM2 | O=S(=O)(Nc1ccccc1)c1ccc2c(c1)[C@H]1OCC[C@H]1[C@H](C1CCCCC1)N2 [Compound 69L66] | 2560 nM | 
20 | No MDM2 | CC(C)C(=O)c1ccc(C2Nc3ccc(S(=O)(=O)Nc4ccccc4)cc3[C@H]3OCC[C@@H]23)cc1 (some centres unmarked) [Compound 69L75] | 3210 nM | 
21 | No MDM2 | Cc1ccc(NS(=O)(=O)c2ccc3c(c2)[C@H]2OCC[C@H]2C(c2ccc(C(=O)C4CCCCC4)cc2)N3)cc1C (some centres unmarked) [Compound 69L70] | 3090 nM | 
22 | No MDM2 | Cc1ccc(NS(=O)(=O)c2ccc3c(c2)C2OCC[C@H]2C(c2cccc(C(=O)C(C)C)c2)N3)cc1C (some centres unmarked) [Compound 69L94] | 3560 nM | 
23 | inhibition | Cc1cc(NS(=O)(=O)c2ccc3c(c2)C(=O)CC(c2ccc(C(=O)C(C)C)cc2)N3)ccc1F (centres unmarked) [Compound 69L108, N-(4-fluoro-3-methylphenyl)-2-(4-isobutyrylphenyl)-4-oxo-1,2,3,4-tetrahydroquinoline-6-sulfonamide] | 420 nM | 
24 | No MDM2 | CC(=O)c1cccc(C2CC(=O)c3cc(S(=O)(=O)Nc4ccc(F)c(C)c4)ccc3N2)c1 (centres unmarked) [Compound 69L109, 2-(3-acetylphenyl)-N-(4-fluoro-3-methylphenyl)-4-oxo-1,2,3,4-tetrahydroquinoline-6-sulfonamide] | 100 nM | 
25 | inhibition | CC(=O)c1ccc(NS(=O)(=O)c2ccc3c(c2)[C@H]2OCC[C@H]2C(c2ccc(C(=O)C(C)C)cc2)N3)cc1 (some centres unmarked) [Compound 69L98, N-(4-acetylphenyl)-4-(4-isobutyrylphenyl)-2,3,3a,4,5,9b-hexahydrofuro[3,2-c]quinoline-8-sulfonamide] | 1500 nM | induction
26 | inhibition | CC(=O)c1cccc(NS(=O)(=O)c2ccc3c(c2)C(=O)CC(c2cccc(C(C)=O)c2)N3)c1 (centres unmarked) [Compound 69L121, N,2-bis(3-acetylphenyl)-4-oxo-1,2,3,4-tetrahydroquinoline-6-sulfonamide] | 180 nM | 
27 | No MDM2 | Cc1cc(NS(=O)(=O)c2ccc3c(c2)[C@H]2OCC[C@H]2C(c2ccc(C(=O)C(C)C)cc2)N3)ccc1F (some centres unmarked) [Compound 69L79] | 2910 nM | 
28 |  | CC(=O)c1ccc([C@@H]2CC(O)c3cc(S(=O)(=O)Nc4ccc(C)c(C)c4)ccc3N2)cc1 (some centres unmarked) [Compound 69L47] | 2100 nM | 
29 | inhibition | Cc1cccc(NS(=O)(=O)c2ccc3c(c2)[C@H]2OCC[C@H]2[C@H](c2ccc(C(=O)C(C)C)cc2)N3)c1 [Compound 69L95] | 1420 nM | 
30 |  | CC(=O)c1cccc(NS(=O)(=O)c2ccc3c(c2)C2NCC[C@H]2[C@H](c2ccc(C(=O)C(C)C)cc2)N3)c1 (stereo partly drawn) [69L130 cis] | > 10000 nM | 
31 |  | COC(=O)c1ccc([C@H]2Nc3ccc(S(=O)(=O)Nc4ccc(C)c(C)c4)cc3[C@H]3OCC[C@@H]23)cc1 [Compound 69L28] | 8400 to 11900 nM | 
32 |  | Cc1ccc(NS(=O)(=O)c2ccc3c(c2)[C@H]2OCC[C@H]2[C@H](c2ccc(C(=O)O)cc2)N3)cc1C [Compound 69L5] | > 50000 nM | 
33 |  | Cc1ccc(N(C)S(=O)(=O)c2ccc3c(c2)[C@H]2OCC[C@H]2[C@H](c2ccc(C(=O)C(C)C)cc2)N3)cc1C (stereo in doubt) [Compound 69L133, N-(3,4-dimethylphenyl)-4-(4-isobutyrylphenyl)-N-methyl-2,3,3a,4,5,9b-hexahydrofuro[3,2-c]quinoline-8-sulfonamide] | 1580 nM | 

Row | Compound | MDM2 reduction [2] | IC50 [1] | p53 induction [3]
34 | Cc1ccc(NS(=O)(=O)c2ccc3c(c2)C2OCC[C@H]2C(c2ccc(C(=O)C(C)C)cc2)N3)cc1C (some centres unmarked) [Compound 69L96] | inhibition | 2080 nM | 
